How the values were obtained:
Assay type in all cases: cell-based
[1] = test system: STAT3; test: STAT3-response dual luciferase reporter assay
Method: Fig. 1 N4 inhibits STAT3 dimerization and transcription in vitro. A Purified STAT3 protein was incubated with labeled phosphopeptide, 5-carboxyfluorescein-GpYLPQTV-NH2 for 1 h at 37 °C. FP signals were measured, and the data were analyzed using Graph Pad 7.0 software. B Chemical structure of N4. C Different concentrations of N4 were pre-incubated with recombined STAT3 protein for 1 h, then 10 nM of labeled peptide was added for 1 h. The IC50 was calculated using Graph Pad 7.0. D, E, F STAT3 specific luciferase reporter plasmid was transiently transfected into 293T cells. After 24 h transfection, IL-6 (20 ng/mL), OSM (10 ng/mL), and V-SRC expression plasmid (200 ng) was used to activate STAT3 luciferase activity, N4 was added at the indicated concentrations. Renilla luciferase activities were used as an internal reference (n = 2 per group). The values are expressed as mean ± SD and the bars indicate statistically significant differences (t test), *P < 0.05; **P < 0.01; ***P < 0.001.
Dual luciferase assay was performed as previously described. […] Renilla and firefly luciferase activities were determined by luminometry using the Dual Luciferase Reporter Assay System (Promega). The ratio was calculated.
Supplementary Figure 5. […] The values are expressed as mean ± SD and the bars indicate statistically significant differences (t-test), *P < 0.05; **P < 0.01; ***P < 0.001. […]

[2] = test system: normal cells (HPNE, HAF); test: MTS proliferation assay, normal cells; conditions: 48 h
Method: Fig. 4 N4 suppresses pancreatic cancer cell proliferation and migration and induces apoptosis. A Pancreatic cancer cells (CAPAN-2, PANC-1, MIAPACA-2, BXPC-3, HPAC, and CFPAC-1) and normal cells (HPNE, HAF) were incubated with the indicated concentration of N4 for 48 h. MTS assays were performed to detect the N4-mediated inhibition of cell proliferation. Data are shown as mean ± SD, *P < 0.05, **P < 0.01, ***P < 0.001, ****P < 0.0001, n.s. not significant by one-way ANOVA followed by multiple comparisons. B, C CAPAN-2, PANC-1, and MIAPACA-2 cells were treated with N4 (B) or C188-9 (C) for 7 days. The cells fixed and stained, and colony numbers were calculated. Experiments were carried out in triplicate with identical results obtained. […] Apoptotic cells were analyzed as described in Materials and Methods. […] In F, after 48 h transfection, transfected cells were seeded in 96-well plates, and cells were enumerated at day 1, day 2, and day 4, In G, different cells transfected with different siRNA were treated with the indicated concentrations of N4, and cell viability measured after a 48 h treatment. Data are expressed as mean ± SD, *P < 0.05, ***P < 0.001, n.s. not significant by one-way ANOVA followed by multiple comparisons. […] Data are expressed as mean ± SD, *P < 0.05, ***P < 0.001, n.s. not significant; Student’s t tests were performed. […]

[3] = test system: Pancreatic cancer cells; test: Trans-well migration
Method: independent assays; *P < 0.05, **P < 0.01, ***P < 0.001, ****p < 0.0001 by one-way ANOVA followed by multiple comparisons. (C) Pancreatic cancer cells were seeded in the top chamber of Trans-well inserts and treated with N4 the following day. The lower chamber was fixed, stained, and photographed. Experiments were carried out in triplicate with identical results obtained. Data shown as mean ± SD; **P < 0.01, ****p < 0.0001 by Student’s t-tests. Scale bar, 100 μm.

COc1cc2c(cc1C(=O)Nc1cccc3cccnc13)CCC1C(C)(C)C(=O)C(C#N)=C[C@]21C (stereo partly shown) [N4]
STAT3-dependent luciferase reporter activity ([1]; 293T cells, IL-6, OSM or V-SRC induced): suppressed | STAT3-response luciferase activities ([1]; PANC-1 and BXPC-3 cells, with or without IL-6 stimulation): efficiently inhibited | effect on two normal cell types [2]: no significant effect | pancreatic cancer migration [3]: efficiently blocked
